Data from PubChem BioAssay (NCI).
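Method: 48-hour compound exposure of cells in 96-well plates, five concentrations, linear interpolation of endpoints. At the TGI there is no net growth.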

What was measured:
Experiment in all cases: inhibition of tumour cell growth, NCI panel, 48 h
786-0 renal = system: 786-0 renal
TK-10 renal = system: TK-10 renal
T-47D breast = system: T-47D breast
MDA-MB-435 = system: MDA-MB-435
OVCAR-8 ovarian = system: OVCAR-8 ovarian
RXF 393 renal = system: RXF 393 renal
HOP-92 NSCLC = system: HOP-92 NSCLC
SR leukemia = system: SR leukemia
OVCAR-4 ovarian = system: OVCAR-4 ovarian
HL-60(TB) leukemia = system: HL-60(TB) leukemia

| SMILES | TGI (786-0 renal) | TGI (TK-10 renal) | TGI (T-47D breast) | TGI (MDA-MB-435) | TGI (OVCAR-8 ovarian) | TGI (RXF 393 renal) | TGI (HOP-92 NSCLC) | TGI (SR leukemia) | TGI (OVCAR-4 ovarian) | TGI (HL-60(TB) leukemia) |
| --- | --- | --- | --- | --- | --- | --- | --- | --- | --- | --- |
| CCOC(=O)c1c(SCc2cc(=O)[nH]c(=O)[nH]2)n(-c2ccccc2)c(=S)n(-c2ccccc2)c1=O | > 100 µM | > 100 µM | > 100 µM | > 100 µM | > 100 µM | > 100 µM | – | – | – | – |
| CCCCNC(=O)Cn1c2ccc(Br)cc2c2nc3ccccc3nc21 | > 100 µM | > 100 µM | > 100 µM | > 100 µM | > 100 µM | > 100 µM | > 100 µM | > 100 µM | – | – |
| N#Cc1c(-c2ccc([N+](=O)[O-])cc2)c(C#N)c(=O)n(NS(=O)(=O)c2ccccc2)c1O | > 100 µM | > 100 µM | – | > 100 µM | > 100 µM | > 100 µM | > 100 µM | – | > 100 µM | > 100 µM |
| COc1ccc(C2C=C(c3ccc(C)cc3)N(c3ccc(OC)cc3[N+](=O)[O-])C3C(=O)OC(=O)C23)c(OC)c1 (stereo unspecified) | > 100 µM | > 100 µM | – | > 100 µM | 39.5 µM | – | – | 61 µM | > 100 µM | > 100 µM |
| CC(C)(C)N=NC(C)(C)N=C=O | > 100 µM | > 100 µM | – | – | > 100 µM | > 100 µM | > 100 µM | > 100 µM | > 100 µM | > 100 µM |
| CC[C@]12C=CCN3CCC4(c5cc([C@@]6(C(=O)OC)CC7CN(CCc8c6[nH]c6ccccc86)CC6CCCCC67)c(OC)cc5N(C)C4[C@](O)(C(=O)OC)C1OC(C)=O)[C@@H]32 (stereo partly specified) | 11 µM | 18.7 µM | – | < 0.01 µM | 0.747 µM | 16.9 µM | 1.5 µM | > 33.8 µM | 18.3 µM | > 100 µM |
| C=CN(C=C)C(=O)Cn1cc(-c2ccccc2)nn1 | > 100 µM | > 100 µM | – | > 100 µM | > 100 µM | – | > 100 µM | > 100 µM | > 100 µM | > 100 µM |
| O=c1c2cc([N+](=O)[O-])ccc2oc2nc3n(c(=O)c12)CCCS3 | > 100 µM | > 100 µM | > 100 µM | > 100 µM | – | > 100 µM | > 100 µM | > 100 µM | > 100 µM | – |
| CN1C2=Nc3n(c4ccccc4[n+]3C)CN2c2ccccc21 | > 100 µM | > 100 µM | 55.1 µM | 91 µM | > 100 µM | – | 81.1 µM | 81.5 µM | – | > 100 µM |
| CSc1nc(Cl)c2c(n1)Sc1nc3ccccc3n1C2O (stereo unspecified) | 18 µM | > 100 µM | > 100 µM | > 44.2 µM | > 29.5 µM | 20.8 µM | 26.6 µM | – | > 100 µM | – |
| Oc1ccccc1/C=N/N1C(=S)N(C23CC4CC(CC(C4)C2)C3)C(=Nc2ccccc2)C1=Nc1ccccc1 | > 100 µM | > 100 µM | > 100 µM | > 100 µM | > 100 µM | > 100 µM | > 100 µM | > 100 µM | – | – |
| OC(CC(O)(C(F)(F)Cl)C(F)(F)Cl)c1ccccc1 (stereo unspecified) | – | > 10 µM | > 10 µM | – | > 10 µM | > 10 µM | > 10 µM | > 10 µM | > 10 µM | > 10 µM |
| O=c1c2ccc(Cl)cc2oc2c(CNc3ccc(S(=O)(=O)Nc4ncccn4)cc3)cccc12 | > 100 µM | > 100 µM | > 100 µM | > 100 µM | > 100 µM | – | > 100 µM | > 100 µM | > 100 µM | > 100 µM |
| O=[N+]([O-])c1ccc(-c2csc(=[N+]3CCCCC3)s2)cc1 | > 100 µM | > 100 µM | – | – | > 100 µM | > 100 µM | 64.9 µM | > 83.3 µM | 81.4 µM | > 86.6 µM |
| O=C1CC[C@@]23CC(=O)O[C@@H]2CCCC3C1 (stereo partly specified) | > 100 µM | > 100 µM | > 100 µM | – | > 100 µM | > 100 µM | – | > 100 µM | > 100 µM | > 100 µM |
| CN(C)/N=N/c1nc2c(c(=O)n(C)c(=O)n2C)n1CC1CO1 (stereo unspecified) | 57.5 µM | 37.7 µM | 80 µM | 35.6 µM | 36.7 µM | 15.8 µM | – | – | 29.4 µM | > 100 µM |
| O=C(NC(C(F)(F)F)(C(F)(F)F)P(=O)(Cc1ccccc1)Cc1ccccc1)C(C(F)(F)F)C(F)(F)F | 34.4 µM | 39.1 µM | 95.1 µM | 34.3 µM | 46.5 µM | 47.6 µM | – | 80.6 µM | – | 71.3 µM |
| CS(=O)(=O)Nc1ccc2ccccc2c1 | > 100 µM | > 100 µM | > 100 µM | > 100 µM | > 100 µM | – | > 100 µM | > 100 µM | > 100 µM | > 100 µM |
| c1cncc(CSc2nc3ccccc3nc2-c2cccs2)c1 | > 100 µM | > 100 µM | – | – | > 100 µM | – | – | > 100 µM | > 100 µM | 47.9 µM |
| CNC(=S)N1CCN(C(C)=O)C1=S | > 100 µM | > 100 µM | 90.7 µM | > 100 µM | > 100 µM | – | > 100 µM | > 100 µM | 32.1 µM | > 100 µM |
| CC/C=N\N1C(N)=C(C#N)C(C#N)(C#N)C1CC (stereo unspecified) | > 100 µM | > 100 µM | > 100 µM | > 100 µM | > 100 µM | > 100 µM | – | – | > 100 µM | 85.6 µM |
| CCCCN(CCCC)CC(C(C)=O)C(c1ccccc1)c1c(O)c2ccccc2oc1=O (stereo unspecified) | > 100 µM | > 100 µM | – | – | > 100 µM | > 100 µM | > 100 µM | > 100 µM | > 100 µM | > 100 µM |
| C=C(C)[C@H]1CC23C(=O)[C@@](C)(C[C@H]2C1(C)C)C(=O)C(C(=O)C(C)C)=C3O | 35 µM | 53.3 µM | > 100 µM | 31.3 µM | 40.2 µM | 29 µM | – | 38.7 µM | 34.9 µM | 41.6 µM |
| C=C1[C@@H]2CCC3[C@]4(C)C(CC[C@@]5(C)C(=O)O[C@H](O)[C@@H]45)[C@H](O)[C@]3(C2)[C@H]1OC1OC(CO)C(O)C(O)C1O (stereo partly specified) | > 50 µM | > 50 µM | > 50 µM | – | > 50 µM | > 50 µM | – | – | > 50 µM | > 50 µM |
